Experimental data reported in PubChem BioAssay (NCI).
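Growth conditions: 96-well plates. Treatment: test compound, 48 hours, 5 concentrations. Analysis: linear interpolation between bracketing concentrations; unreached endpoints set to highest concentration. GI50 is the concentration that inhibits growth by half. TGI marks complete inhibition of growth.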

Key:
Assay in all cases: NCI tumour cell line growth inhibition, 48 h; in the data active means GI50 below about 0.43 µM; inactive means the rest
OVCAR-5 ovarian = system: OVCAR-5 ovarian
SK-MEL-5 melanoma = system: SK-MEL-5 melanoma
U251 CNS = system: U251 CNS
NCI-H226 lung = system: NCI-H226 lung
HT29 colon = system: HT29 colon
LOX IMVI melanoma = system: LOX IMVI melanoma
HCC-2998 colon = system: HCC-2998 colon
IGROV1 ovarian = system: IGROV1 ovarian
786-0 renal = system: 786-0 renal
PC-3 prostate = system: PC-3 prostate
SN12C renal = system: SN12C renal
NCI-H460 lung = system: NCI-H460 lung
CCRF-CEM leukemia = system: CCRF-CEM leukemia
SK-OV-3 ovarian = system: SK-OV-3 ovarian
HOP-62 NSCLC = system: HOP-62 NSCLC
EKVX NSCLC = system: EKVX NSCLC
OVCAR-8 ovarian = system: OVCAR-8 ovarian
HCT-116 colon = system: HCT-116 colon
MALME-3M melanoma = system: MALME-3M melanoma
SF-539 CNS = system: SF-539 CNS
K-562 leukemia = system: K-562 leukemia
DU-145 prostate = system: DU-145 prostate
HCT-15 colon = system: HCT-15 colon
UACC-257 melanoma = system: UACC-257 melanoma
A498 renal = system: A498 renal
ACHN renal = system: ACHN renal
RXF 393 renal = system: RXF 393 renal
OVCAR-3 ovarian = system: OVCAR-3 ovarian
UACC-62 melanoma = system: UACC-62 melanoma
T-47D breast = system: T-47D breast
CAKI-1 renal = system: CAKI-1 renal
SK-MEL-28 melanoma = system: SK-MEL-28 melanoma
SNB-19 CNS = system: SNB-19 CNS
SF-268 CNS = system: SF-268 CNS
COLO 205 colon = system: COLO 205 colon
MOLT-4 leukemia = system: MOLT-4 leukemia
KM12 colon = system: KM12 colon
SK-MEL-2 melanoma = system: SK-MEL-2 melanoma
SNB-75 CNS = system: SNB-75 CNS
NCI/ADR-RES ovarian = system: NCI/ADR-RES ovarian
MCF7 breast = system: MCF7 breast
NCI-H23 lung = system: NCI-H23 lung
HOP-92 NSCLC = system: HOP-92 NSCLC
MDA-MB-435 = system: MDA-MB-435
A549 NSCLC = system: A549 NSCLC
SW-620 colon = system: SW-620 colon
NCI-H522 lung = system: NCI-H522 lung
OVCAR-4 ovarian = system: OVCAR-4 ovarian
SF-295 CNS = system: SF-295 CNS
BT-549 breast = system: BT-549 breast
M14 melanoma = system: M14 melanoma
TK-10 renal = system: TK-10 renal
MDA-MB-231 breast = system: MDA-MB-231 breast
SR leukemia = system: SR leukemia
UO-31 renal = system: UO-31 renal
RPMI-8226 leukemia = system: RPMI-8226 leukemia
HS 578T breast = system: HS 578T breast
HL-60(TB) leukemia = system: HL-60(TB) leukemia

COc1ccc(C2ONC3=NCCN32)cc1 (stereo unspecified)
61.7 µM: TGI (CCRF-CEM leukemia)
47.1 µM: TGI (LOX IMVI melanoma)
> 100 µM: TGI (OVCAR-5 ovarian) | TGI (SK-MEL-5 melanoma) | TGI (U251 CNS) | TGI (NCI-H226 lung) | TGI (HT29 colon) | TGI (HCC-2998 colon) | TGI (IGROV1 ovarian) | TGI (786-0 renal) | TGI (PC-3 prostate) | TGI (SN12C renal) | TGI (NCI-H460 lung) | TGI (SK-OV-3 ovarian) | TGI (HOP-62 NSCLC) | TGI (EKVX NSCLC) | TGI (OVCAR-8 ovarian) | TGI (HCT-116 colon) | TGI (MALME-3M melanoma) | TGI (SF-539 CNS) | TGI (K-562 leukemia) | TGI (DU-145 prostate) | TGI (HCT-15 colon) | TGI (UACC-257 melanoma) | TGI (A498 renal) | TGI (ACHN renal) | TGI (RXF 393 renal) | TGI (OVCAR-3 ovarian) | TGI (UACC-62 melanoma) | TGI (T-47D breast) | TGI (CAKI-1 renal) | TGI (SK-MEL-28 melanoma) | TGI (SNB-19 CNS) | TGI (SF-268 CNS) | TGI (COLO 205 colon) | TGI (MOLT-4 leukemia) | TGI (KM12 colon) | TGI (SK-MEL-2 melanoma) | TGI (SNB-75 CNS) | TGI (NCI/ADR-RES ovarian) | TGI (MCF7 breast) | TGI (NCI-H23 lung) | TGI (HOP-92 NSCLC) | TGI (MDA-MB-435) | TGI (A549 NSCLC) | TGI (SW-620 colon) | TGI (NCI-H522 lung) | TGI (OVCAR-4 ovarian) | TGI (SF-295 CNS) | TGI (BT-549 breast) | TGI (M14 melanoma) | TGI (TK-10 renal) | TGI (MDA-MB-231 breast)
inactive: GI50 (OVCAR-5 ovarian) > 100 µM | GI50 (SK-MEL-5 melanoma) 53.3 µM | GI50 (U251 CNS) 45 µM | GI50 (NCI-H226 lung) 61.4 µM | GI50 (HT29 colon) 68.8 µM | GI50 (LOX IMVI melanoma) 14.4 µM | GI50 (HCC-2998 colon) 49.7 µM | GI50 (IGROV1 ovarian) 73.2 µM | GI50 (786-0 renal) 25.5 µM | GI50 (PC-3 prostate) 55.4 µM | GI50 (SN12C renal) 52.8 µM | GI50 (NCI-H460 lung) 50.8 µM | GI50 (CCRF-CEM leukemia) 26.6 µM | GI50 (SK-OV-3 ovarian) 40.7 µM | GI50 (HOP-62 NSCLC) 84.9 µM | GI50 (EKVX NSCLC) > 100 µM | GI50 (OVCAR-8 ovarian) 67.7 µM | GI50 (HCT-116 colon) 40.4 µM | GI50 (MALME-3M melanoma) > 100 µM | GI50 (SF-539 CNS) 84.8 µM | GI50 (K-562 leukemia) 38.3 µM | GI50 (DU-145 prostate) 70.3 µM | GI50 (HCT-15 colon) 29.2 µM | GI50 (UACC-257 melanoma) > 100 µM | GI50 (A498 renal) > 100 µM | GI50 (ACHN renal) 37.1 µM | GI50 (RXF 393 renal) > 100 µM | GI50 (OVCAR-3 ovarian) 35.2 µM | GI50 (UACC-62 melanoma) 67.3 µM | GI50 (T-47D breast) 99.4 µM | GI50 (CAKI-1 renal) 48.2 µM | GI50 (SK-MEL-28 melanoma) > 100 µM | GI50 (SNB-19 CNS) > 100 µM | GI50 (SF-268 CNS) 70.5 µM | GI50 (COLO 205 colon) 45.9 µM | GI50 (MOLT-4 leukemia) 37.1 µM | GI50 (KM12 colon) 54.7 µM | GI50 (SK-MEL-2 melanoma) > 100 µM | GI50 (SNB-75 CNS) > 100 µM | GI50 (NCI/ADR-RES ovarian) 40.4 µM | GI50 (MCF7 breast) 61.1 µM | GI50 (NCI-H23 lung) > 100 µM | GI50 (HOP-92 NSCLC) 40.8 µM | GI50 (MDA-MB-435) > 100 µM | GI50 (A549 NSCLC) 86.9 µM | GI50 (SW-620 colon) 46.8 µM | GI50 (NCI-H522 lung) > 100 µM | GI50 (OVCAR-4 ovarian) > 100 µM | GI50 (SF-295 CNS) 93.4 µM | GI50 (BT-549 breast) 94.1 µM | GI50 (M14 melanoma) > 100 µM | GI50 (TK-10 renal) > 100 µM | GI50 (MDA-MB-231 breast) > 100 µM

Cc1c(C(=O)OCc2ccccc2)[n+](=O)c2cc(F)c(F)cc2n1[O-]
4.48 µM: TGI (MALME-3M melanoma)
4.53 µM: TGI (SF-268 CNS)
3.87 µM: TGI (SNB-19 CNS)
3.12 µM: TGI (A498 renal)
3.53 µM: TGI (OVCAR-4 ovarian) | TGI (HL-60(TB) leukemia)
5.75 µM: TGI (SF-539 CNS)
37.7 µM: TGI (TK-10 renal)
> 100 µM: TGI (OVCAR-5 ovarian) | TGI (786-0 renal) | TGI (CCRF-CEM leukemia) | TGI (HOP-62 NSCLC) | TGI (HCT-116 colon) | TGI (K-562 leukemia) | TGI (HCT-15 colon) | TGI (RPMI-8226 leukemia) | TGI (NCI/ADR-RES ovarian)
6.74 µM: TGI (NCI-H226 lung)
6.32 µM: TGI (MCF7 breast)
4.86 µM: TGI (T-47D breast)
3.92 µM: TGI (CAKI-1 renal)
3.36 µM: TGI (UO-31 renal)
6.27 µM: TGI (NCI-H23 lung)
3.94 µM: TGI (MDA-MB-435)
3.62 µM: TGI (BT-549 breast)
4.06 µM: TGI (SF-295 CNS)
3.51 µM: TGI (SK-MEL-2 melanoma)
4 µM: TGI (UACC-257 melanoma)
2.97 µM: TGI (HS 578T breast)
4.07 µM: TGI (SK-MEL-28 melanoma)
9.62 µM: TGI (COLO 205 colon)
3.3 µM: TGI (IGROV1 ovarian)
5.5 µM: TGI (MOLT-4 leukemia)
39.4 µM: TGI (KM12 colon)
3.85 µM: TGI (ACHN renal)
3.19 µM: TGI (SR leukemia)
4.68 µM: TGI (HCC-2998 colon) | TGI (SNB-75 CNS)
3.96 µM: TGI (NCI-H522 lung)
6.6 µM: TGI (NCI-H460 lung)
